These molecules were tested against T1, Androgen receptor (AR) (Homo sapiens, UniProt P10275, T878A) (assay: Assessment of AR proteolytic activity (Western blotting of LNCap cell lysates)). Conditions: 24 hours of treatment, Western blotting quantified with Image J.
T1 construct: 5.5×10^5 LNCap cells were injected into each well of a 6-well plate; endogenous in cells; host or cells: LNCaP
T1 sequence (P10275 1-920 T878A): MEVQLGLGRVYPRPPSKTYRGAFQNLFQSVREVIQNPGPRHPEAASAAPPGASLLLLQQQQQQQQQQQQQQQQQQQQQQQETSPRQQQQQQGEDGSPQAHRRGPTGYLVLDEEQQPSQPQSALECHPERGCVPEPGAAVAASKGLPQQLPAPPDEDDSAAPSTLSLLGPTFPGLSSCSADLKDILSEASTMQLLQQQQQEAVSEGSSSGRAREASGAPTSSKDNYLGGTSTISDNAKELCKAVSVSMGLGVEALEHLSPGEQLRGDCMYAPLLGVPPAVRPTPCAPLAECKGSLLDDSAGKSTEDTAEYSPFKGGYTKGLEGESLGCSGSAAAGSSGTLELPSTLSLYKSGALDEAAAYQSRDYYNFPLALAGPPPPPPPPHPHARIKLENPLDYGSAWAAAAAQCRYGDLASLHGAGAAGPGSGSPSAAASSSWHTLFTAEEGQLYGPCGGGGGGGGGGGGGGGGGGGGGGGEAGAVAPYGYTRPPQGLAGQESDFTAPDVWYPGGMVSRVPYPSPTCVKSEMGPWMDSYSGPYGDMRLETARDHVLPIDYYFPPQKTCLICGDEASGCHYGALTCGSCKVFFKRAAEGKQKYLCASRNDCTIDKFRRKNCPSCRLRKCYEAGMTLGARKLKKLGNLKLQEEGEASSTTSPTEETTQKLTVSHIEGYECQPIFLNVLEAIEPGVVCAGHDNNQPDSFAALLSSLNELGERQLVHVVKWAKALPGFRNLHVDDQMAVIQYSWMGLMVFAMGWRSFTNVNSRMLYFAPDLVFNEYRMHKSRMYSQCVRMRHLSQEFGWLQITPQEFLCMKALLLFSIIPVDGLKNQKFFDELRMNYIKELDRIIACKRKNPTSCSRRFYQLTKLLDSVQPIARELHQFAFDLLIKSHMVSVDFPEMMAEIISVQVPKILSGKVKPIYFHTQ
Format: cell-based
Protocol: Assessment of AR Proteolytic Activity
Androgen receptor (AR) proteolytic activity of the compound according to the present invention was evaluated as follows: Specifically, 5.5×10^5 LNCap cells were injected into each well of a 6-well plate. […] After 24 hours of treatment, cells were collected and lysed using RIPA Lysis buffer (50 mM Tris-HCl, pH7.5, 150 mM NaCl, 1% Triton X-100, 2 mM EDTA, 0.1% SDS, 0.5% sodium deoxycholate and protease inhibitor cocktail) to make cell lysates. Western blotting was performed, and the results were quantified using Image J program.

Row | SMILES | Degradation (1 μM treated in LNCaP, % AR remaining) [%]
1 | CC1(C)C(NC(=O)c2ccc(N3CCC4(CC3)CN(CC3CN(c5ccc6c(=O)n(C7CCC(=O)NC7=O)nnc6c5)C3)C4)nc2)C(C)(C)C1Oc1ccc(C#N)c(Cl)c1 (stereo not drawn) [Example 175, N-((1r,3r)-3-(3-chloro-4-cyanophenoxy)-2,2,4,4-tetramethylcyclobutyl)-6-(2-((1-(3-(2,6-dioxopiperidin-3-yl)-4-oxo-3,4-dihydrobenzo[d][1,2,3]triazin-7-yl)azetidin-3-yl)methyl)-2,7-diazaspiro[3.5]nonan-7-yl)nicotinamide] | 10
2 | CC1(C)C(NC(=O)c2ccc(N3CCC4(CC3)CN(CC3CN(c5ccc6nnn(C7CCC(=O)NC7=O)c(=O)c6c5)C3)C4)nc2)C(C)(C)C1Oc1ccc(C#N)c(Cl)c1 (stereo not drawn) [Example 176, N-((1r,3r)-3-(3-chloro-4-cyanophenoxy)-2,2,4,4-tetramethylcyclobutyl)-6-(2-((1-(3-(2,6-dioxopiperidin-3-yl)-4-oxo-3,4-dihydrobenzo[d][1,2,3]triazin-6-yl)azetidin-3-yl)methyl)-2,7-diazaspiro[3.5]nonan-7-yl)nicotinamide] | 6
3 | CC1(C)C(NC(=O)c2ccc(C#CCN3CCN(c4ccc5c(=O)n(C6CCC(=O)NC6=O)nnc5c4)CC3)nc2)C(C)(C)C1Oc1ccc(C#N)c(Cl)c1 (stereo not drawn) [Example 177, N-((1r,3r)-3-(3-chloro-4-cyanophenoxy)-2,2,4,4-tetramethylcyclobutyl)-6-(3-(4-(3-(2,6-dioxopiperidin-3-yl)-4-oxo-3,4-dihydrobenzo[d][1,2,3]triazin-7-yl)piperazin-1-yl)prop-1-yn-1-yl)nicotinamide] | 56
4 | CC1(C)C(NC(=O)c2ccc(C#CCN3CCN(c4ccc5nnn(C6CCC(=O)NC6=O)c(=O)c5c4)CC3)nc2)C(C)(C)C1Oc1ccc(C#N)c(Cl)c1 (stereo not drawn) [Example 178, N-((1r,3r)-3-(3-chloro-4-cyanophenoxy)-2,2,4,4-tetramethylcyclobutyl)-6-(3-(4-(3-(2,6-dioxopiperidin-3-yl)-4-oxo-3,4-dihydrobenzo[d][1,2,3]triazin-6-yl)piperazin-1-yl)prop-1-yn-1-yl)nicotinamide] | 23
5 | CC1(C)C(NC(=O)c2ccc(C#CCN3CC4(CCN(c5ccc6c(=O)n(C7CCC(=O)NC7=O)nnc6c5)CC4)C3)nc2)C(C)(C)C1Oc1ccc(C#N)c(Cl)c1 (stereo not drawn) [Example 179, N-((1r,3r)-3-(3-chloro-4-cyanophenoxy)-2,2,4,4-tetramethylcyclobutyl)-6-(3-(7-(3-(2,6-dioxopiperidin-3-yl)-4-oxo-3,4-dihydrobenzo[d][1,2,3]triazin-7-yl)-2,7-diazaspiro[3.5]nonan-2-yl)prop-1-yn-1-yl)nicotinamide] | 8
6 | CC1(C)C(NC(=O)c2ccc(C#CCN3CC4(CCN(c5ccc6nnn(C7CCC(=O)NC7=O)c(=O)c6c5)CC4)C3)nc2)C(C)(C)C1Oc1ccc(C#N)c(Cl)c1 (stereo not drawn) [Example 180, N-((1r,3r)-3-(3-chloro-4-cyanophenoxy)-2,2,4,4-tetramethylcyclobutyl)-6-(3-(7-(3-(2,6-dioxopiperidin-3-yl)-4-oxo-3,4-dihydrobenzo[d][1,2,3]triazin-6-yl)-2,7-diazaspiro[3.5]nonan-2-yl)prop-1-yn-1-yl)nicotinamide] | 18
7 | CC1(C)C(NC(=O)c2ccc(C#CCN3CCC4(CC3)CN(c3ccc5c(=O)n(C6CCC(=O)NC6=O)nnc5c3)C4)nc2)C(C)(C)C1Oc1ccc(C#N)c(Cl)c1 (stereo not drawn) [Example 181, N-((1r,3r)-3-(3-chloro-4-cyanophenoxy)-2,2,4,4-tetramethylcyclobutyl)-6-(3-(2-(3-(2,6-dioxopiperidin-3-yl)-4-oxo-3,4-dihydrobenzo[d][1,2,3]triazin-7-yl)-2,7-diazaspiro[3.5]nonan-7-yl)prop-1-yn-1-yl)nicotinamide] | 18
8 | CC1(C)C(NC(=O)c2ccc(C#CCN3CCC4(CC3)CN(c3ccc5nnn(C6CCC(=O)NC6=O)c(=O)c5c3)C4)nc2)C(C)(C)C1Oc1ccc(C#N)c(Cl)c1 (stereo not drawn) [Example 182, N-((1r,3r)-3-(3-chloro-4-cyanophenoxy)-2,2,4,4-tetramethylcyclobutyl)-6-(3-(2-(3-(2,6-dioxopiperidin-3-yl)-4-oxo-3,4-dihydrobenzo[d][1,2,3]triazin-6-yl)-2,7-diazaspiro[3.5]nonan-7-yl)prop-1-yn-1-yl)nicotinamide] | 16
9 | CC1(C)C(NC(=O)c2ccc(C#CC3CCN(CC4CN(c5ccc6c(=O)n(C7CCC(=O)NC7=O)nnc6c5)C4)CC3)nc2)C(C)(C)C1Oc1ccc(C#N)c(Cl)c1 (stereo not drawn) [Example 183, N-((1r,3r)-3-(3-chloro-4-cyanophenoxy)-2,2,4,4-tetramethylcyclobutyl)-6-((1-((1-(3-(2,6-dioxopiperidin-3-yl)-4-oxo-3,4-dihydrobenzo[d][1,2,3]triazin-7-yl)azetidin-3-yl)methyl)piperidin-4-yl)ethynyl)nicotinamide] | 7.5
10 | CC1(C)C(NC(=O)c2ccc(C#CC3CCN(CC4CN(c5ccc6nnn(C7CCC(=O)NC7=O)c(=O)c6c5)C4)CC3)nc2)C(C)(C)C1Oc1ccc(C#N)c(Cl)c1 (stereo not drawn) [Example 184, N-((1r,3r)-3-(3-chloro-4-cyanophenoxy)-2,2,4,4-tetramethylcyclobutyl)-6-((1-((1-(3-(2,6-dioxopiperidin-3-yl)-4-oxo-3,4-dihydrobenzo[d][1,2,3]triazin-6-yl)azetidin-3-yl)methyl)piperidin-4-yl)ethynyl)nicotinamide] | 11
11 | CC1(C)[C@H](NC(=O)c2ccc(N3CC[C@H](CN4CC5(CCN(c6ccc7c(=O)n(C8CCC(=O)NC8=O)nnc7c6)CC5)C4)C3)nc2)C(C)(C)[C@H]1Oc1ccc(C#N)c(Cl)c1 (stereo partly drawn) [Example 185, N-((1r,3R)-3-(3-chloro-4-cyanophenoxy)-2,2,4,4-tetramethylcyclobutyl)-6-((3R)-3-((7-(3-(2,6-dioxopiperidin-3-yl)-4-oxo-3,4-dihydrobenzo[d][1,2,3]triazin-7-yl)-2,7-diazaspiro[3.5]nonan-2-yl)methyl)pyrrolidin-1-yl)nicotinamide] | 10
12 | CC1(C)C(NC(=O)c2ccc(N3CC[C@H](CN4CC5(CCN(c6ccc7nnn(C8CCC(=O)NC8=O)c(=O)c7c6)CC5)C4)C3)nc2)C(C)(C)C1Oc1ccc(C#N)c(Cl)c1 (stereo partly drawn) [Example 186, N-((1r,3R)-3-(3-chloro-4-cyanophenoxy)-2,2,4,4-tetramethylcyclobutyl)-6-((3R)-3-((7-(3-(2,6-dioxopiperidin-3-yl)-4-oxo-3,4-dihydrobenzo[d][1,2,3]triazin-6-yl)-2,7-diazaspiro[3.5]nonan-2-yl)methyl)pyrrolidin-1-yl)nicotinamide] | 11
13 | CC1(C)C(NC(=O)c2ccc(N3CC[C@@H](CN4CC5(CCN(c6ccc7c(=O)n(C8CCC(=O)NC8=O)nnc7c6)CC5)C4)C3)nc2)C(C)(C)C1Oc1ccc(C#N)c(Cl)c1 (stereo partly drawn) [Example 187, N-((1r,3S)-3-(3-chloro-4-cyanophenoxy)-2,2,4,4-tetramethylcyclobutyl)-6-((3S)-3-((7-(3-(2,6-dioxopiperidin-3-yl)-4-oxo-3,4-dihydrobenzo[d][1,2,3]triazin-7-yl)-2,7-diazaspiro[3.5]nonan-2-yl)methyl)pyrrolidin-1-yl)nicotinamide] | 27
14 | CC1(C)C(NC(=O)c2ccc(N3CC[C@@H](CN4CC5(CCN(c6ccc7nnn(C8CCC(=O)NC8=O)c(=O)c7c6)CC5)C4)C3)nc2)C(C)(C)C1Oc1ccc(C#N)c(Cl)c1 (stereo partly drawn) [Example 188, N-((1r,3S)-3-(3-chloro-4-cyanophenoxy)-2,2,4,4-tetramethylcyclobutyl)-6-((3S)-3-((7-(3-(2,6-dioxopiperidin-3-yl)-4-oxo-3,4-dihydrobenzo[d][1,2,3]triazin-6-yl)-2,7-diazaspiro[3.5]nonan-2-yl)methyl)pyrrolidin-1-yl)nicotinamide] | 21
15 | CC1(C)C(NC(=O)c2ccc(N3CC[C@H](CN4CCC5(CC4)CN(c4ccc6c(=O)n(C7CCC(=O)NC7=O)nnc6c4)C5)C3)nc2)C(C)(C)C1Oc1ccc(C#N)c(Cl)c1 (stereo partly drawn) [Example 189, N-((1r,3R)-3-(3-chloro-4-cyanophenoxy)-2,2,4,4-tetramethylcyclobutyl)-6-((3R)-3-((2-(3-(2,6-dioxopiperidin-3-yl)-4-oxo-3,4-dihydrobenzo[d][1,2,3]triazin-7-yl)-2,7-diazaspiro[3.5]nonan-7-yl)methyl)pyrrolidin-1-yl)nicotinamide] | 14

From patent publication US20240018123A1, “COMPOUND FOR INHIBITING OR DISINTEGRATING ANDROGEN RECEPTOR, AND PHARMACEUTICAL USE THEREOF” (KOREA RESEARCH INSTITUTE OF CHEMICAL TECHNOLOGY, priority 2020, published 2024)
